Source: PubChem BioAssay (NCI)
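Protocol summary: plate cells (96-well), add compound at 5 concentrations, incubate 48 h, interpolate endpoints linearly. GI50 = concentration required for 50% inhibition of growth. TGI is the concentration that stops growth completely.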

Tests used:
Assay in all cases: NCI tumour cell line growth inhibition, 48 h
UACC-62 melanoma = test system: UACC-62 melanoma
T-47D breast = test system: T-47D breast
SK-MEL-5 melanoma = test system: SK-MEL-5 melanoma
ACHN renal = test system: ACHN renal
SK-MEL-28 melanoma = test system: SK-MEL-28 melanoma
SF-295 CNS = test system: SF-295 CNS
HOP-92 NSCLC = test system: HOP-92 NSCLC
MCF7 breast = test system: MCF7 breast
HCC-2998 colon = test system: HCC-2998 colon
HCT-116 colon = test system: HCT-116 colon
M14 melanoma = test system: M14 melanoma
HT29 colon = test system: HT29 colon
LOX IMVI melanoma = test system: LOX IMVI melanoma
HL-60(TB) leukemia = test system: HL-60(TB) leukemia
MALME-3M melanoma = test system: MALME-3M melanoma
NCI-H522 lung = test system: NCI-H522 lung
BT-549 breast = test system: BT-549 breast
OVCAR-3 ovarian = test system: OVCAR-3 ovarian
A498 renal = test system: A498 renal
MOLT-4 leukemia = test system: MOLT-4 leukemia
RPMI-8226 leukemia = test system: RPMI-8226 leukemia
SF-268 CNS = test system: SF-268 CNS
MDA-MB-231 breast = test system: MDA-MB-231 breast
KM12 colon = test system: KM12 colon
NCI-H23 lung = test system: NCI-H23 lung
HOP-62 NSCLC = test system: HOP-62 NSCLC
SN12C renal = test system: SN12C renal
SK-OV-3 ovarian = test system: SK-OV-3 ovarian
NCI-H226 lung = test system: NCI-H226 lung
NCI/ADR-RES ovarian = test system: NCI/ADR-RES ovarian
786-0 renal = test system: 786-0 renal
HS 578T breast = test system: HS 578T breast
PC-3 prostate = test system: PC-3 prostate
COLO 205 colon = test system: COLO 205 colon
SNB-75 CNS = test system: SNB-75 CNS
IGROV1 ovarian = test system: IGROV1 ovarian
K-562 leukemia = test system: K-562 leukemia
EKVX NSCLC = test system: EKVX NSCLC
SR leukemia = test system: SR leukemia
MDA-MB-435 = test system: MDA-MB-435
TK-10 renal = test system: TK-10 renal
SK-MEL-2 melanoma = test system: SK-MEL-2 melanoma
OVCAR-4 ovarian = test system: OVCAR-4 ovarian
A549 NSCLC = test system: A549 NSCLC
U251 CNS = test system: U251 CNS
DU-145 prostate = test system: DU-145 prostate
OVCAR-5 ovarian = test system: OVCAR-5 ovarian
UACC-257 melanoma = test system: UACC-257 melanoma
SW-620 colon = test system: SW-620 colon
HCT-15 colon = test system: HCT-15 colon
RXF 393 renal = test system: RXF 393 renal
SF-539 CNS = test system: SF-539 CNS
SNB-19 CNS = test system: SNB-19 CNS
NCI-H460 lung = test system: NCI-H460 lung
UO-31 renal = test system: UO-31 renal
OVCAR-8 ovarian = test system: OVCAR-8 ovarian
CCRF-CEM leukemia = test system: CCRF-CEM leukemia
CAKI-1 renal = test system: CAKI-1 renal

## O=C(N/N=C/c1c(Cl)cccc1Cl)c1cccnc1Nc1cccc(C(F)(F)F)c1
UACC-62 melanoma
  GI50: 2.46 µM
  TGI: 9.64 µM
T-47D breast
  GI50: 2.65 µM
  TGI: 71 µM
SK-MEL-5 melanoma
  GI50: 2.34 µM
  TGI: 6.52 µM
ACHN renal
  GI50: 3.04 µM
  TGI: 20.8 µM
SK-MEL-28 melanoma
  GI50: 3.03 µM
  TGI: 40.4 µM
SF-295 CNS
  GI50: 1.78 µM
  TGI: 14 µM
HOP-92 NSCLC
  GI50: 4.01 µM
  TGI: 25.5 µM
MCF7 breast
  GI50: 3.92 µM
  TGI: > 100 µM
HCC-2998 colon
  GI50: 3.86 µM
  TGI: > 100 µM
HCT-116 colon
  GI50: 1.53 µM
  TGI: 18.1 µM
M14 melanoma
  GI50: 2.72 µM
  TGI: 17.1 µM
HT29 colon
  GI50: 4.7 µM
  TGI: > 100 µM
LOX IMVI melanoma
  GI50: 1.83 µM
  TGI: 19 µM
HL-60(TB) leukemia
  GI50: 3.15 µM
  TGI: 34.1 µM
MALME-3M melanoma
  GI50: 2.95 µM
  TGI: 10.8 µM
NCI-H522 lung
  GI50: 2.55 µM
  TGI: 15 µM
BT-549 breast
  GI50: 3.28 µM
  TGI: 55.5 µM
OVCAR-3 ovarian
  GI50: 2.72 µM
  TGI: 27.5 µM
A498 renal
  GI50: 3.13 µM
  TGI: 32.8 µM
MOLT-4 leukemia
  GI50: 0.942 µM
  TGI: > 100 µM
RPMI-8226 leukemia
  GI50: 0.717 µM
  TGI: 4.88 µM
SF-268 CNS
  GI50: 2.18 µM
  TGI: > 100 µM
MDA-MB-231 breast
  GI50: 5.16 µM
  TGI: 72 µM
KM12 colon
  GI50: 3.24 µM
  TGI: 57.3 µM
NCI-H23 lung
  GI50: 6.35 µM
  TGI: > 100 µM
HOP-62 NSCLC
  GI50: 3.97 µM
  TGI: 20.8 µM
SN12C renal
  GI50: 2.58 µM
  TGI: 98.9 µM
SK-OV-3 ovarian
  GI50: 3.77 µM
  TGI: 30.2 µM
NCI-H226 lung
  GI50: 2.44 µM
  TGI: 21.9 µM
NCI/ADR-RES ovarian
  GI50: 1.7 µM
  TGI: 44.6 µM
786-0 renal
  GI50: 3.87 µM
  TGI: 27.9 µM
HS 578T breast
  GI50: 3.59 µM
  TGI: 26.2 µM
PC-3 prostate
  GI50: 2.79 µM
  TGI: > 100 µM
COLO 205 colon
  GI50: 2.9 µM
  TGI: 37.9 µM
SNB-75 CNS
  GI50: 3.9 µM
  TGI: 24.8 µM
IGROV1 ovarian
  GI50: 2.41 µM
  TGI: 54.9 µM
K-562 leukemia
  GI50: 3.57 µM
  TGI: > 100 µM
EKVX NSCLC
  GI50: 2.25 µM
  TGI: 27.4 µM
SR leukemia
  GI50: 2.57 µM
  TGI: 28.5 µM
MDA-MB-435
  GI50: 3.8 µM
  TGI: > 100 µM
TK-10 renal
  GI50: 4.4 µM
  TGI: 79.2 µM
SK-MEL-2 melanoma
  GI50: 11.1 µM
  TGI: 56.1 µM
OVCAR-4 ovarian
  GI50: 0.941 µM
  TGI: 48.3 µM
A549 NSCLC
  GI50: 4.69 µM
  TGI: > 100 µM
U251 CNS
  GI50: 1.47 µM
  TGI: 11.6 µM
DU-145 prostate
  GI50: 5.35 µM
  TGI: > 100 µM
OVCAR-5 ovarian
  GI50: 4.43 µM
  TGI: 47 µM
UACC-257 melanoma
  GI50: 4.31 µM
  TGI: > 100 µM
SW-620 colon
  GI50: 1.66 µM
  TGI: > 100 µM
HCT-15 colon
  GI50: 0.668 µM
  TGI: > 100 µM
RXF 393 renal
  GI50: 6.53 µM
  TGI: 38.6 µM
SF-539 CNS
  GI50: 4.28 µM
  TGI: 19.5 µM
SNB-19 CNS
  GI50: 4.62 µM
  TGI: > 100 µM
NCI-H460 lung
  GI50: 2.04 µM
  TGI: 35.3 µM
UO-31 renal
  GI50: 3 µM
  TGI: > 100 µM
OVCAR-8 ovarian
  GI50: 3.49 µM
  TGI: > 100 µM
CCRF-CEM leukemia
  GI50: 0.323 µM
  TGI: 10.8 µM

## O=c1ccc2nc(C(F)(F)F)nn(-c3ccccc3)c-2c1
UACC-62 melanoma
  GI50: 5.13 µM
  TGI: 17.9 µM
T-47D breast
  GI50: 1.69 µM
  TGI: 6.62 µM
SK-MEL-5 melanoma
  GI50: 7.8 µM
  TGI: 21.1 µM
ACHN renal
  GI50: 1.18 µM
  TGI: 2.45 µM
SK-MEL-28 melanoma
  GI50: 1.7 µM
  TGI: 3.26 µM
SF-295 CNS
  GI50: 22.7 µM
  TGI: 67.1 µM
HOP-92 NSCLC
  GI50: 1.41 µM
  TGI: 2.97 µM
MCF7 breast
  GI50: 0.495 µM
  TGI: 4.07 µM
HCC-2998 colon
  GI50: 15.4 µM
  TGI: 29.7 µM
HCT-116 colon
  GI50: 1.61 µM
  TGI: 3.15 µM
M14 melanoma
  GI50: 5.8 µM
  TGI: 19 µM
LOX IMVI melanoma
  GI50: 1.59 µM
  TGI: 3.22 µM
HL-60(TB) leukemia
  GI50: 1.21 µM
  TGI: 4.31 µM
MALME-3M melanoma
  GI50: 1.82 µM
  TGI: 3.3 µM
NCI-H522 lung
  GI50: 1.51 µM
  TGI: 3.01 µM
BT-549 breast
  GI50: 12.3 µM
  TGI: 24.8 µM
OVCAR-3 ovarian
  GI50: 1.58 µM
  TGI: 2.95 µM
A498 renal
  GI50: 14.1 µM
  TGI: 27.2 µM
RPMI-8226 leukemia
  GI50: 4.82 µM
  TGI: 77.5 µM
SF-268 CNS
  GI50: 15 µM
  TGI: 28.9 µM
MDA-MB-231 breast
  GI50: 1.92 µM
  TGI: 5.55 µM
KM12 colon
  GI50: 19.6 µM
  TGI: 37.3 µM
NCI-H23 lung
  GI50: 5.96 µM
  TGI: 22.2 µM
HOP-62 NSCLC
  GI50: 7.95 µM
  TGI: 27.7 µM
SN12C renal
  GI50: 7.31 µM
  TGI: 57.4 µM
SK-OV-3 ovarian
  GI50: 15 µM
  TGI: > 100 µM
NCI-H226 lung
  GI50: 13.1 µM
  TGI: 30.5 µM
NCI/ADR-RES ovarian
  GI50: 17.1 µM
  TGI: 64 µM
HS 578T breast
  GI50: 12.2 µM
  TGI: 80.4 µM
PC-3 prostate
  GI50: 10.7 µM
  TGI: 23.7 µM
COLO 205 colon
  GI50: 2.32 µM
  TGI: 5.77 µM
SNB-75 CNS
  GI50: 13.3 µM
  TGI: 26.4 µM
IGROV1 ovarian
  GI50: 11.9 µM
  TGI: 25.5 µM
K-562 leukemia
  GI50: 2.11 µM
  TGI: 9.14 µM
EKVX NSCLC
  GI50: 13.6 µM
  TGI: 27.1 µM
SR leukemia
  GI50: 0.999 µM
  TGI: > 100 µM
MDA-MB-435
  GI50: 4.56 µM
  TGI: 16.4 µM
TK-10 renal
  GI50: 1.62 µM
  TGI: 3.09 µM
SK-MEL-2 melanoma
  GI50: 3.63 µM
  TGI: 15.6 µM
OVCAR-4 ovarian
  GI50: 1.47 µM
  TGI: 2.83 µM
A549 NSCLC
  GI50: 19.3 µM
  TGI: 39 µM
U251 CNS
  GI50: 13.4 µM
  TGI: 28.6 µM
DU-145 prostate
  GI50: 1.77 µM
  TGI: 3.17 µM
CAKI-1 renal
  GI50: 1.47 µM
  TGI: 2.8 µM
OVCAR-5 ovarian
  GI50: 15.4 µM
  TGI: 29.1 µM
UACC-257 melanoma
  GI50: 1.91 µM
  TGI: 4.05 µM
SW-620 colon
  GI50: 1.75 µM
  TGI: 3.71 µM
HCT-15 colon
  GI50: 1.45 µM
  TGI: 3.42 µM
RXF 393 renal
  GI50: 1.45 µM
  TGI: 2.8 µM
SF-539 CNS
  GI50: 15.8 µM
  TGI: 29.3 µM
NCI-H460 lung
  GI50: 17.6 µM
  TGI: 36.2 µM
UO-31 renal
  GI50: 1.48 µM
  TGI: 2.9 µM
OVCAR-8 ovarian
  GI50: 4.21 µM
  TGI: 33.9 µM
